Data on 26 molecules can be found in patent US9334278B2, “Pyrrolo[2,3-B]pyrazines as SYK inhibitors” (Hoffmann-La Roche Inc., priority 2012, dated 2016).

The test system of test [1] is B cell CD69 up-regulation in human whole blood. Briefly: B Cell CD69 Up-Regulation Assay in Human Whole Blood. The test is classed as cell-based. The conditions noted are these: anti-human IgM 50 μg/mL for 20 h, CD69hi CD20+ B cells. The protocol:
B Cell CD69 Up-Regulation Assay in Human Whole Blood
Human Blood was collected from healthy volunteers into Vacutainers (BD Biosciences, San Jose, Calif.) containing sodium heparin. Test compound was suspended in DMSO and nine half-log serial dilutions were made. The concentration of […] in the assay was 0.5%. 100 μL whole blood was pre-incubated with compound for 30 min and then stimulated with goat F(ab′)2 anti-human IgM (50 μg/mL, Southern Biotech) for 20 h. At the end of the 20 hour incubation, samples were incubated with fluorochrome-conjugated antibodies, PE mouse anti-human CD20 and APC Mouse anti-human CD69 (BD Biosciences), for 30 minutes. Samples were then lysed with Lyse solution (BD) and washed with PBS containing 2% fetal bovine serum (FBS). Fluorescent signals were acquired on flow cytometer LSR II (BD) and data were analyzed by Flow Jo. The percentage of activated (CD69hi) B-cell lymphocytes (CD20+) were determined using un-stimulated (negative control) and stimulated (positive control) wells as reference guidelines. The percentage inhibition was calculated and an IC50 curve was constructed using GraphPad Prism software with sigmoidal curve fitting.

The target of test [2] is recombinant human SYK360-635 (Spleen Tyrosine Kinase) (Homo sapiens (Human), UniProt P43405). Briefly: SYK kinase assay (33P filtration, IC50 of SYK inhibition).
Protocol: Determination of IC50 of Spleen Tyrosine Kinase (SYK) inhibition:
SYK kinase assay is a standard kinase assay adapted to a 96 well plate format. This assay is performed in 96-well format for IC50 determination with 8 samples which represented 10 half log dilutions and a 40 μL reaction volume. The assay measures the incorporation of radiolabeled ^33P γATP into an N-terminally biotinylated peptide substrate, derived from naturally occurring phosphoacceptor consensus sequence (Biotin-11aa DY*E). Phosphorylated products were detected upon termination of reactions with EDTA and the addition of Streptavidin coated beads.
BSA: Bovine Serum Albumin Fraction V, fatty acid free (Roche Diagnostics GmbH, Cat. No. 9100221) diluted to a final concentration of 0.1%
Assay Dilution Buffer (ADB): 50 mM HEPES, 0.1 mM EGTA, 0.1 mM Na Vanadate, 0.1 mM (3-glycerophosphate, 10 mM MgCl2, 1 mM DTT, 0.1% BSA, pH 7.5
Bead wash buffer: 10 g/L PBS (Phosphate buffered saline) with 2M NaCl+1% phosphoric acid.
DMSO and the mixture was incubated for 10 min at RT.
The kinase reaction was initiated by the addition of 10 μL 4× substrate cocktail containing the DYE peptide substrate [0 or 5 μM], ATP [20 μM] and ^33PγATP [2 μCi/r×n]. After incubation at 30° C. for 15 min, the reaction was terminated by the transfer of 25 μL of the reaction sample to a 96 well 0.65 μm Millipore MADVNOB membrane/plate containing 200 μL 5 mM EDTA and 20% Streptavidine coated beads in PBS.
The unbound radionucleotides were washed under vacuum with 3×250 μL 2M NaCl; 2×250 μL 2M NaCl+1% phosphoric acid; 1×250 μL H2O. After the last wash membrane/plates were transferred to an adaptor plate, heat dried for 15 min at 60° C., and 50 μL scintillation cocktail was added to each well and 4 h later the amount of radioactivity was counted in a top counter.
In test [3] the test system is Human B cell lymphoma cell line Ramos. Briefly: Ramos Calcium Influx FLIPR Assay. As to conditions: Ramos cells, anti-human IgM 10 μg/mL stimulation, read-out: RAMOS_IC50. The test is classed as cell-based. The protocol: Ramos Calcium Influx FLIPR Assay
Human B cell lymphoma cell line Ramos was cultivated in RPMI-1640 with 10% Fetal Bovine Serum (Invitrogen). Cells were seeded into assay plate and loaded with calcium dye by adding 30 μl of dye loading buffer according to manufacturer's instruction (Beckton Dickinson Calcium Kit, Cat#80500). The cells were then treated with serial diluted compounds for 30 min before stimulation. Baseline fluorescence was recorded for about 20 seconds followed by stimulation with mouse anti-human IgM (10 μg/mL, clone M2E6, Antibody Solutions Inc.) for Ramos cells, and record of the maximal fluorescent counts in each well. Maximal counts divided by baseline counts, defined as fold change from baseline for each well, was used for IC50 calculation.

Where [4] appears, read: read-out: ENZYME_FILTRATION_IC50, SYK 0.5 nM, ATP 20 μM, 33P filtration.

Where two headings read alike, the source gives them in different places.

As to `CN(C)C(=O)c1ccccc1Nc1cnc2[nH]cc(C(=O)NC(C)(C)C)c2n1` [Compound I-15, N-tert-butyl-2-(2-(dimethylcarbamoyl)phenylamino)-5H-pyrrolo[2,3-b]pyrazine-7-carboxamide], the IC50 was 6940 nM in test [1] and 934 nM in test [2] (setting [4]).

As for `CC(C)(C)NC(=O)c1c[nH]c2ncc(Nc3cccnc3)nc12` [Compound I-10, N-tert-butyl-2-(pyridin-3-ylamino)-5H-pyrrolo[2,3-b]pyrazine-7-carboxamide], the IC50 was 64.5 nM in test [3] and 16.3 nM in test [2] (setting [4]).

On to `Cn1cc2c(n1)CCCN2c1cnc2[nH]cc(C(=O)NC(C)(C)C)c2n1` [Compound I-32, N-tert-butyl-2-(2-methyl-6,7-dihydro-2H-pyrazolo[4,3-b]pyridin-4(5H)-yl)-5H-pyrrolo[2,3-b]pyrazine-7-carboxamide], for which the IC50 in test [3] came to 275 nM; in test [1], 1140 nM; in test [2] (setting [4]), 43.7 nM.

Consider `CC(C)(C)NC(=O)c1c[nH]c2ncc(Nc3ccc(S(C)(=O)=O)nc3)nc12` [Compound I-23, N-tert-butyl-2-(6-(methylsulfonyl)pyridin-3-ylamino)-5H-pyrrolo[2,3-b]pyrazine-7-carboxamide], for which the IC50 in test [3] was 3620 nM; in test [1], 630 nM; in test [2] (setting [4]), 117 nM.

As for `COc1ncc(Nc2cnc3[nH]cc(C(=O)NC(C)(C)C)c3n2)cn1` [Compound I-25, N-tert-butyl-2-(2-methoxypyrimidin-5-ylamino)-5H-pyrrolo[2,3-b]pyrazine-7-carboxamide], the figures for the IC50 in test [3], in test [1] and in test [2] (setting [4]) were 213 nM, 433 nM and 71.2 nM, respectively.

In the case of `Cc1cc(Nc2cnc3[nH]cc(C(=O)NC(C)(C)C)c3n2)on1` [Compound I-22, N-tert-butyl-2-(3-methylisoxazol-5-ylamino)-5H-pyrrolo[2,3-b]pyrazine-7-carboxamide], the values for the IC50 in test [3], in test [1] and in test [2] (setting [4]) were 79.7 nM, 1340 nM and 25.1 nM, respectively.

As for `CC(C)(C)NC(=O)c1c[nH]c2ncc(Nc3ccnc(S(C)(=O)=O)c3)nc12` [Compound I-28, N-tert-butyl-2-(2-(methylsulfonyl)pyridin-4-ylamino)-5H-pyrrolo[2,3-b]pyrazine-7-carboxamide], the values for the IC50 in test [3] and in test [2] (setting [4]) were 806 nM and 121 nM, respectively.

Take `CC(C)(C)NC(=O)c1c[nH]c2ncc(Nc3cccc(S(C)(=O)=O)c3)nc12` [Compound I-13, N-tert-butyl-2-(3-(methylsulfonyl)phenylamino)-5H-pyrrolo[2,3-b]pyrazine-7-carboxamide]: the IC50 in test [3] turned out to be 69 nM; in test [1], 190 nM; in test [2] (setting [4]), 12.8 nM.

Take `CCn1cc(Nc2cnc3[nH]cc(C(=O)NC(C)(C)C)c3n2)cn1` [Compound I-14, N-tert-butyl-2-(1-ethyl-1H-pyrazol-4-ylamino)-5H-pyrrolo[2,3-b]pyrazine-7-carboxamide]: the results for the IC50 in test [3], in test [1] and in test [2] (setting [4]) were 101 nM, 184 nM and 35.9 nM, respectively.

As to `CN(c1cccnc1)c1cnc2[nH]cc(C(=O)NC(C)(C)C)c2n1` [Compound I-21, N-tert-butyl-2-(methyl(pyridin-3-yl)amino)-5H-pyrrolo[2,3-b]pyrazine-7-carboxamide], the values for the IC50 in test [3], in test [1] and in test [2] (setting [4]) were 4800 nM, greater than 50000 nM and 1900 nM, respectively.

Turning to `Cc1nn(C)cc1Nc1cnc2[nH]cc(C(=O)NC(C)(C)C)c2n1` [Compound I-30, N-tert-butyl-2-(1,3-dimethyl-1H-pyrazol-4-ylamino)-5H-pyrrolo[2,3-b]pyrazine-7-carboxamide], the IC50 in test [3] was 278 nM; in test [1] it was 268 nM; in test [2] (setting [4]), 97.5 nM.

Regarding `Cc1ccc(Nc2cnc3[nH]cc(C(=O)NC(C)(C)C)c3n2)nc1` [Compound I-1, N-tert-butyl-2-(5-methylpyridin-2-ylamino)-5H-pyrrolo[2,3-b]pyrazine-7-carboxamide], the results for the IC50 in test [3], in test [1] and in test [2] (setting [4]) were 122 nM, 627 nM and 8.5 nM, respectively.

For `Cc1cc(Nc2nc3c(C(=O)NC(C)(C)C)c[nH]c3nc2Cl)sn1` [Compound I-38, N-tert-butyl-3-chloro-2-(3-methylisothiazol-5-ylamino)-5H-pyrrolo[2,3-b]pyrazine-7-carboxamide], the IC50 in test [3] was found to be 14900 nM; in test [2] (setting [4]), 640 nM.

`[2H]c1c([2H])c([2H])c(Nc2cnc3[nH]cc(C(=O)NC(C)(C)C)c3n2)c([2H])c1[2H]` [Compound I-37, 2-Phenylamino(D5)-5H-pyrrolo[2,3-b]pyrazine-7-carboxylic acid tert-butylamide]: the IC50 was 37.7 nM in test [3] and 4.8 nM in test [2].

On to `Cc1ccc(Nc2cnc3[nH]cc(C(=O)NC(C)(C)C)c3n2)c(C)c1` [Compound I-19, N-tert-butyl-2-(2,4-dimethylphenylamino)-5H-pyrrolo[2,3-b]pyrazine-7-carboxamide], for which the IC50 in test [3] worked out at 518 nM; in test [2] (setting [4]) it was 117 nM.

As to `Cc1ccc(Nc2cnc3[nH]cc(C(=O)NC(C)(C)C)c3n2)cc1` [Compound I-12, N-tert-butyl-2-(p-tolylamino)-5H-pyrrolo[2,3-b]pyrazine-7-carboxamide], the IC50 was 76.7 nM in test [3], 2160 nM in test [1] and 3.2 nM in test [2] (setting [4]).

For the molecule `Cc1cc(Nc2nc3c(C(=O)NC(C)(C)C)c[nH]c3nc2C)sn1` [Compound I-36, 3-Methyl-2-(3-methyl-isothiazol-5-ylamino)-5H-pyrrolo[2,3-b]pyrazine-7-carboxylic acid tert-butylamide], the values for the IC50 in test [3], in test [1] and in test [2] (setting [4]) were 1250 nM, 8300 nM and 251 nM, respectively.

For the molecule `Cc1nc2[nH]cc(C(=O)NC(C)(C)C)c2nc1Nc1cnn(C)c1` [Compound I-34, 3-Methyl-2-(1-methyl-1H-pyrazol-4-ylamino)-5H-pyrrolo[2,3-b]pyrazine-7-carboxylic acid tert-butylamide], the values for the IC50 in test [3] and in test [1] were 2170 nM and 5120 nM, respectively.

`Cc1cnc(Nc2cnc3[nH]cc(C(=O)NC(C)(C)C)c3n2)cn1` [Compound I-8, N-tert-butyl-2-(5-methylpyrazin-2-ylamino)-5H-pyrrolo[2,3-b]pyrazine-7-carboxamide]: the IC50 in test [3] came out at 334 nM; in test [1], 422 nM; in test [2] (setting [4]), 51.3 nM.

As for `CC(O)c1cccc(Nc2cnc3[nH]cc(C(=O)NC(C)(C)C)c3n2)c1` (centres unmarked) [Compound I-24, N-tert-butyl-2-(3-(1-hydroxyethyl)phenylamino)-5H-pyrrolo[2,3-b]pyrazine-7-carboxamide], the IC50 in test [3] was 93.3 nM; in test [1], 418 nM; in test [2] (setting [4]), 5.9 nM.

As to `Cc1nsc(Nc2cnc3[nH]cc(C(=O)NC(C)(C)C)c3n2)n1` [Compound I-31, N-tert-butyl-2-(3-methyl-1,2,4-thiadiazol-5-ylamino)-5H-pyrrolo[2,3-b]pyrazine-7-carboxamide], the IC50 in test [3] was 251 nM; in test [2] (setting [4]), 17.8 nM.

Turning to `Cc1ccc(Nc2cnc3[nH]cc(C(=O)NC(C)C)c3n2)nc1` [Compound I-4, N-isopropyl-2-(5-methylpyridin-2-ylamino)-5H-pyrrolo[2,3-b]pyrazine-7-carboxamide], the IC50 was determined as 258 nM in test [3], 918 nM in test [1] and 42.8 nM in test [2] (setting [4]).

Take `CC(C)(C)NC(=O)c1c[nH]c2ncc(Nc3cncc(S(C)(=O)=O)c3)nc12` [Compound I-29, N-tert-butyl-2-(5-(methylsulfonyl)pyridin-3-ylamino)-5H-pyrrolo[2,3-b]pyrazine-7-carboxamide]: the IC50 stood at 642 nM in test [3] and 228 nM in test [2] (setting [4]).

Take `Cc1ccc(Nc2cnc3[nH]cc(C(=O)NC(C)(C)C)c3n2)c(F)c1` [Compound I-11, N-tert-butyl-2-(2-fluoro-4-methylphenylamino)-5H-pyrrolo[2,3-b]pyrazine-7-carboxamide]: the IC50 in test [3] came out at 1330 nM; in test [2] (setting [4]) it was 10.9 nM.

On to `CC(C)(CO)NC(=O)c1c[nH]c2ncc(Nc3cccnc3)nc12` [Compound I-26, N-(1-hydroxy-2-methylpropan-2-yl)-2-(pyridin-3-ylamino)-5H-pyrrolo[2,3-b]pyrazine-7-carboxamide], for which the IC50 in test [3] came to 216 nM; in test [2] (setting [4]), 5.6 nM.

In the case of `Cc1nc2[nH]cc(C(=O)NC(C)(C)C)c2nc1Nc1cccc(S(C)(=O)=O)c1` [Compound I-35, 2-(3-Methanesulfonyl-phenylamino)-3-methyl-5H-pyrrolo[2,3-b]pyrazine-7-carboxylic acid tert-butylamide], the IC50 in test [2] (setting [4]) worked out at 2940 nM.
